Measurements taken from US9550796B2, “Pyrrolopyrrolone derivatives and their use as BET inhibitors” (NOVARTIS AG, priority 2013, dated 2017).
pIC50: −log10 of the molar value.

Tests used:
CREBBP = CREBBP (Homo sapiens (Human), UniProt Q92793); experiment: AlphaScreen in-vitro binding assay for CREBBP; details: 324 nM His-CREBBP (1081-1197), acetyl-histone H4 (AcK 5, 8, 12) peptide
Summary of the method: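 IC50 values were derived by non-linear regression of percent inhibition across 8 compound concentrations. Protein was His-tagged CREBBP bromodomain (1081-1197), peptide acetyl-histone H4 (AcK 5, 8, 12), in HEPES pH 7.5 buffer. Read-out was AlphaScreen with Ni-chelate acceptor and streptavidin donor beads, 35 min at 30° C then 60 min at RT.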

THP-1 = experiment: Cell growth inhibition assay (CellTiter-Glo), THP-1; assay type: cell-based, human; details: THP-1 cells, 4 days; for GI50: Homo sapiens, 96 h, half-maximal growth inhibition; for THP-1 TGI: total growth inhibition
Summary of the method: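 ATP content was quantified with CellTiter-Glo after 4-day compound treatment (top 10 μM, 3-fold steps) at 37 °C. Readings were background- and day-0-corrected, scaled so vehicle equals 100% and medium equals −100%. Four-parameter fits gave half-maximal (IC50) and total growth inhibition concentrations.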

Sequence of CREBBP (Q92793 1081-1197): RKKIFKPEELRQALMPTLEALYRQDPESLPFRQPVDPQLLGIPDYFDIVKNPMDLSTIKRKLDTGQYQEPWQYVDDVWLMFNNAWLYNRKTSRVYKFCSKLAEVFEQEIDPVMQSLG

| SMILES | pIC50 (CREBBP) | GI50 (THP-1) | THP-1 TGI (THP-1) |
| --- | --- | --- | --- |
| Cc1cn(C)c2c1C(=O)N(c1cc(C)c3nnc(C)n3c1)C2c1ccc(Cl)cc1 (stereo not drawn) [Example 33, 6-(4-chlorophenyl)-5-(3,8-dimethyl-[1,2,4]triazolo[4,3-a]pyridin-6-yl)-1,3-di methyl-5,6-dihydropyrrolo[3,4-b]pyrrol-4(1H)-one] | 5.00 | 17.4 nM | 0.0356 µM |
| Cc1cn(C)c2c1C(=O)N(c1cc(C)c(=O)n(C)c1)C2c1ccc(Cl)cc1 (stereo not drawn) [Example 34, 6-(4-chlorophenyl)-5-(1,5-dimethyl-6-oxo-1,6-dihydropyridin-3-yl)-1,3-dimethyl-5,6-dihydropyrrolo[3,4-b]pyrrol-4(1H)-one] | 5.72 | 43.8 nM | 0.0994 µM |
| COc1ncc(-c2cc3c(n2C)C(c2ccc(Cl)cc2)N(c2cc(Cl)c(=O)n(C)c2)C3=O)c(OC)n1 (stereo not drawn) [Example 38, 5-(5-chloro-1-methyl-6-oxo-1,6-dihydropyridin-3-yl)-6-(4-chlorophenyl)-2-(2,4-dimethoxypyrimidin-5-yl)-1-methyl-5,6-dihydropyrrolo[3,4-b]pyrrol-4(1H)-one] | 6.69 | 37.5 nM | 0.0727 µM |
| Cn1c(-c2ccc(=O)n(C)c2)cc2c1C(c1ccc(Cl)cc1)N(c1cc(Cl)c(=O)n(C)c1)C2=O (stereo not drawn) [Example 42, 5-(5-chloro-1-methyl-6-oxo-1,6-dihydropyridin-3-yl)-6-(4-chlorophenyl)-1-methyl-2-(1-methyl-6-oxo-1,6-dihydropyridin-3-yl)-5,6-dihydropyrrolo[3,4-b]pyrrol-4(1H)-one] | 6.51 | 811 nM | 1.47 µM |
| Cc1cc(N2C(=O)c3cc(-c4ccn(C)c(=O)c4)n(C)c3C2c2ccc(Cl)cc2)cn(C)c1=O (stereo not drawn) [Example 45, 6-(4-chlorophenyl)-5-(1,5-dimethyl-6-oxo-1,6-dihydropyridin-3-yl)-1-methyl-2-(1-methyl-2-oxo-1,2-dihydropyridin-4-yl)-5,6-dihydropyrrolo[3,4-b]pyrrol-4(1H)-one] | 6.43 | 109 nM | 0.213 µM |
| COc1ncc(-c2cc3c(n2C)[C@@H](c2ccc(Cl)cc2)N(c2cc(C)c(=O)n(C)c2)C3=O)c(OC)n1 [Example 54, (R)-6-(4-chlorophenyl)-2-(2,4-dimethoxypyrimidin-5-yl)-5-(1,5-dimethyl-6-oxo-1,6-dihydropyridin-3-yl)-1-methyl-5,6-dihydropyrrolo[3,4-b]pyrrol-4(1H)-one] | 7.04 | 23.3 nM | 0.0415 µM |
| COc1ncc(-c2cc3c(n2C)[C@@H](c2ccc(Cl)cc2)N(c2cc(C)c(=O)n(C)c2)C3=O)cn1 [Example 56, (R)-6-(4-chlorophenyl)-5-(1,5-dimethyl-6-oxo-1,6-dihydropyridin-3-yl)-2-(2-methoxypyrimidin-5-yl)-1-methyl-5,6-dihydropyrrolo[3,4-b]pyrrol-4(1H)-one] | 6.89 | 30.3 nM | 0.0507 µM |
| Cc1cc2c(n1C)[C@@H](c1ccc(Cl)cc1)N(c1cc(Cl)c(=O)n(C)c1)C2=O [Example 75, (R)-5-(5-chloro-1-methyl-6-oxo-1,6-dihydropyridin-3-yl)-6-(4-chlorophenyl)-1,2-dimethyl-5,6-dihydropyrrolo[3,4-b]pyrrol-4(1H)-one] | 6.10 | 74.3 nM | 0.167 µM |
| Cn1ccc2c1[C@@H](c1ccc(Cl)cc1)N(c1cc(Cl)c(=O)n(C)c1)C2=O [Example 77, (R)-5-(5-chloro-1-methyl-6-oxo-1,6-dihydropyridin-3-yl)-6-(4-chlorophenyl)-1-methyl-5,6-dihydropyrrolo[3,4-b]pyrrol-4(1H)-one] | 5.89 | 88.9 nM | 0.146 µM |
